Measured values published in ChEMBL document CHEMBL3585341, “-Heteroarylalkylcarbamates as inhibitors of fatty acid amide hydrolase (FAAH)” (Medchemcomm, 2014).
The source made the active and inactive calls. The calls are words filed in the database; no cut-off is given here.

Tests used:
[1] = molecular target: T1, Fatty-acid amide hydrolase 1 (Rattus norvegicus, UniProt P97612); test: (§1) Inhibition of Sprague-Dawley rat brain microsomal FAAH using N-(2-hydroxyethyl)-4-pyren-1-ylbutanamide as substrate assessed as 4-pyren-1-ylbutanoic acid release preincubated for 10 mins with substrate followed by protein addition measured after 60 mins by reverse phase HPLC with fluorescence detection method
T1 sequence (P97612 whole entry): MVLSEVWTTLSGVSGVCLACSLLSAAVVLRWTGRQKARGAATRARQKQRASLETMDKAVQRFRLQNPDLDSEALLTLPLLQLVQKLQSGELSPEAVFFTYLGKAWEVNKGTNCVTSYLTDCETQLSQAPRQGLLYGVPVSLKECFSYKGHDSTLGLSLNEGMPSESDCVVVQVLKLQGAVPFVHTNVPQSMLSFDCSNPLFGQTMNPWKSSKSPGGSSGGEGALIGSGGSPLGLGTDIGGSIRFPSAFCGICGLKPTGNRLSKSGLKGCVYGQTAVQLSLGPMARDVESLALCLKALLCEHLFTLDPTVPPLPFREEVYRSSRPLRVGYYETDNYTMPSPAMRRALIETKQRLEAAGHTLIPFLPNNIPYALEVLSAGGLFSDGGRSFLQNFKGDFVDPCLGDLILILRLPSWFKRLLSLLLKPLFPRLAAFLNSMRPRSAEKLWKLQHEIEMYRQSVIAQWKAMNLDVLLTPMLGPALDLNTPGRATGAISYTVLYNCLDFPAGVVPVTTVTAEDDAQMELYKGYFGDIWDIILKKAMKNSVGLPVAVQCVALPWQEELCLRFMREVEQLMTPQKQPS

[2] = molecular target: T2, Monoglyceride lipase (Homo sapiens) (UniProt Q99685); test: Inhibition of human recombinant MAGL using […] 4-pyren-1-yl butanoate as substrate at 10 uM preincubated for 15 mins with substrate followed by protein addition measured after 45 mins by reverse phase HPLC with fluorescence detection method
T2 sequence (whole entry): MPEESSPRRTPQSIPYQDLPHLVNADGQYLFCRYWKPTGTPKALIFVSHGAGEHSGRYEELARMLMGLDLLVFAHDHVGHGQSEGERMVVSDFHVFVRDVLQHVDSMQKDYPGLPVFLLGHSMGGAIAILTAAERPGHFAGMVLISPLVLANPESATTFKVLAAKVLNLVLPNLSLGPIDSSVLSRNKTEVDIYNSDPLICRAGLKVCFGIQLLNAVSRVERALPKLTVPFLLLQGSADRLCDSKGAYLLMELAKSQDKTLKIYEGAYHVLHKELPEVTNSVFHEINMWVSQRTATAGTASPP

[3] = organism: Sus scrofa; test: Inhibition of porcine platelet cPLA2alpha using co-vesicles consisting 1-stearoyl-2-arachidonoyl-sn-glycero-3-phosphocholine and 1,2-dioleoyl-sn-glycerol as substrate assessed as arachidonic acid release at 10 uM after 60 mins by reverse phase HPLC with UV-detection method
[4] = Metabolic stability in rat liver S9 fractions assessed as remaining compound after 30 mins by reverse phase HPLC with UV-detection method in presence of NADPH; format: ADME, subcellular, Liver S9 fraction; conditions: read-out: Stability
[5] = Metabolic stability in porcine plasma assessed as remaining compound at […] after 30 mins by reverse phase HPLC with UV-detection method; format: ADME, cell-free, Sus scrofa; conditions: pig, read-out: Stability
[6] = molecular target: T3, Fatty-acid amide hydrolase 1 (Rattus norvegicus) (UniProt P97612); test: as §1, with “release at 10 uM” for “release”
T3 sequence (whole entry): T1 sequence (P97612 whole entry)

Structure (SMILES) | IC50 [1] [µM] | inhibition [3] | further results
Cc1cc(-c2ccccc2)c(-c2ccccc2)n1CCCCNC(=O)Oc1ccccc1 | 6.2 |  | 
O=C(NCCCCCn1ccc2ccccc21)Oc1ccccc1 | 0.094 | inactive | inhibition [2]: inactive
O=C(NCCCCCCn1ncc2ccccc21)Oc1ccccc1 | 0.92 |  | 
O=C(NCCCCCCn1ccc2ccccc21)Oc1cccnc1 | 0.0052 | inactive | remaining at 0.5 h [4]: 47%; remaining at 0.5 h [5]: 0%
O=C(NCCCCCn1ccc2ccccc21)Oc1cccnc1 | 0.0036 | inactive | remaining at 0.5 h [4]: 43%; remaining at 0.5 h [5]: 0%
O=C(NCCCCn1ccc2ccccc21)Oc1ccccc1 | 0.96 | inactive | inhibition [2]: inactive
Cc1cc(-c2ccccc2)c(-c2ccccc2)n1CCCCCCNC(=O)Oc1ccccc1 | 2.6 |  | 
O=C(NCCCCCCn1nnc2ccccc21)Oc1ccccc1 | 0.81 |  | 
O=C(NCCCCCCCn1ccc2ccccc21)Oc1ccccc1 | 0.09 | inactive | inhibition [2]: inactive
Cc1c(C#N)c(-c2ccccc2)c(-c2ccccc2)n1CCCCCCNC(=O)Oc1ccccc1 | 8.7 |  | 
O=C(NCCCCCCn1c(-c2ccccc2)cc2ccccc21)Oc1ccccc1 | 0.52 |  | 
Cc1nc(-c2ccccc2)c(-c2ccccc2)n1CCCCCCNC(=O)Oc1ccccc1 | 0.35 |  | 
O=C(NCCCCCCn1cc(-c2ccccc2)c2ccccc21)Oc1ccccc1 | 4.9 |  | 
O=C(NCCCCCCn1c(-c2ccccc2)c(-c2ccccc2)c2ccccc21)Oc1ccccc1 | 4.7 |  | 
Cc1ccc(-c2ccccc2)n1CCCCCCNC(=O)Oc1ccccc1 | 0.31 |  | 
CC(=O)c1c(-c2ccccc2)c(-c2ccccc2)n(CCCCCCNC(=O)Oc2ccccc2)c1C | > 10 |  | inhibition [6]: 33%
Cc1cc(-c2ccccc2)c(-c2ccccc2)n1CCNC(=O)Oc1ccccc1 |  |  | inhibition [6]: inactive
NC(=O)c1cccc(-c2cccc(OC(=O)NC3CCCCC3)c2)c1 [URB-597] |  | inactive | remaining at 0.5 h [4]: 13%; remaining at 0.5 h [5]: 76%
COC(=O)c1c(-c2ccccc2)c(-c2ccccc2)n(CCCCCCNC(=O)Oc2ccccc2)c1C | > 10 |  | inhibition [6]: 21%
O=C(NCCCCCCn1cnc2ccccc21)Oc1ccccc1 | 0.29 |  | 
O=C(NCCCCCCn1ccc2ccccc21)Oc1ccccc1 | 0.25 | inactive | inhibition [2]: inactive
O=C(NCCCCCCCCn1ccc2ccccc21)Oc1ccccc1 | 0.24 | inactive | inhibition [2]: inactive
Cc1c(-c2ccccc2)cc(-c2ccccc2)n1CCCCCCNC(=O)Oc1ccccc1 | 0.46 |  | 
